Measurements as given in US20100249184A1, “INDUCTION AND/OR MAINTENANCE OF TUMOR DORMANCY BY DISRUPTION OF UROKINASE PLASMINOGEN ACTIVATOR RECEPTOR-INTEGRIN INTERACTION” (MOUNT SINAI SCHOOL OF MEDICINE, priority 2007, published 2010).

How the values were obtained:
T-ELK:GFP cells = assay: ERK activation reporter (GFP, FACS) in T-ELK:GFP cells; assay type: cell-based, human; settings: 38 hrs, untreated 7.4%
Excerpt: FIGS. 6A-E show ERK activation and growth in vivo. In FIG. 6A, HEK293 and D-Hep3 cells transfected with uPAR^wt produces stronger activation of ERK than cells transfected with uPAR^S245A or with vector (top and middle panels); HEK293, and D-HEp3 cells, transiently transfected with pcDNA3.1 vector, or with an expression construct for uPAR^wt or uPAR^S245A lysed 48 hrs later and analyzed by Western blotting for phospho-ERK (FIG. 6A, top panels) and ERK 1/2 (FIG. 6A, middle panels) with specific antibodies. The bands were scanned with NIH Image and plotted. The ratio of phospho-ERK to ERK was calculated and expressed as a fraction of the ratio of pcDNA3.1 transfected cells. In FIG. 6A (bottom panels), uPAR^wt and uPAR^S245A expression was determined by Western blotting. […] D-HEp3 cells transfected with vector, or uPAR^wt or uPAR^S245A were detached with EDTA 36 hrs after transfection and 7×10^5 cells in 30 μl PBS were inoculated onto chorioallantoic membranes (“CAMs”) of 10-day old chick embryos. Each sample was inoculated onto 4 CAMs. The CAMs were excised 4 days later and the number of tumor cells was determined as in the Examples. The bars show mean and standard deviation. Paired t-test vector/uPAR^S245A p=0.76, vector/uPAR^wt p=0.0005, uPAR^S245/uPAR^wt p=0.0002. Inset: uPAR expression detected by Western blot with R2 antibody. In FIG. 6C, peptide 240-248, but not peptide 17-24, down regulates P-ERK level. […] The cells were lysed and the lysates were analyzed for P-ERK (FIG. 6C, upper panel) and total ERK (FIG. 6C, lower panel) by Western blotting. […] The cells were processed as in FIG. 6C, except that the bands were scanned by NIH Image the P-ERK/ERK ratio was calculated. […] The cells were detached and analyzed for GFP in FACS Canto using FACSDiva software. […]
[…] The cells were detached and analyzed for GFP by FACS analysis using FACS Canto (Becton Dickinson, Calif.) and FACSDiva software. […] Concentration dependence of P-ERK inhibition was analyzed by scanning P-ERK and ERK bands with NIH-Image and expressing their ratios as % of the ratio in untreated control (T-HEp3) cells. […]

HEK293 cells = assay: Adhesion assay to fibronectin, transfected HEK293 cells; assay type: cell-based; settings: HEK293-uPAR^wt cells; peptide 20 or 200 μM, 15 min
Experimental: HEK293 cells transiently transfected with pcDNA3.1, or expression constructs for uPAR^wt or uPAR^S245A were detached 40 hrs after transfection and 1.5×10^5 cells were seeded on fibronectin (4 μg/ml in a 48-well plate) for 15 and 30 min at 37° C. Cell adhesion was quantified as described in the Examples. The results shown are mean (SD) of 2 individual experiments, 4 determinations for each cell type. Two additional experiments were performed with similar results. […] The cells were divided into 2 aliquots and one aliquot was incubated for 10 min with anti-uPAR(R^2) antibody (10 μg/ml). Cells (1.2×10^5) were seeded onto wells of a 48-well plate and the adhesion to fibronectin tested as in FIG. 4A. The results are mean (SD) of 6 determinations. […] Cells were seeded onto 96-well plates and adhesion to fibronectin tested as in FIG. 4A. The results are mean (SD) of 3 determinations for each peptide. The experiment was repeated twice.
HEK293 cells were transiently transfected with pcDNA3.1, uPAR^wt, or uPAR^S245A. […] Following 15 and 30 min incubation at 37° C., the cells were washed twice with PBS with CaCl2 and MgCl2, fixed with 1% glutaraldehyde, stained with 1% crystal violet for 10 min, washed, dried, destained with 10% methanol and 5% acetic acid, and the OD of the extracted dye was measured in triplicate using the ELISA microplate-reader ELX800 from Bio-Tek Instruments. […]

Row | Substance | GFP-positive cells (% of total) (T-ELK:GFP cells; 25 μM peptide) | adhesion to fibronectin (HEK293 cells) | GFP-positive cells (% of total) (T-ELK:GFP cells; 5 μM peptide)
1 | peptide 17-24: synthetic uPAR-derived peptide, domain I amino acid 17-24: CALGQDLC (SEQ ID NO:5); negative control [reference compound] | 6.2% | no effect | 
2 | peptide 240-248: synthetic uPAR-derived peptide, domain III residues 240-248: GCATASMCQ (SEQ ID NO:9) | 0.7% | reduced adhesion to fibronectin | 1.6%
